In US7202247B2, “1,3-bis-(substituted-phenyl)-2-propyn-1-ones and their use to treat disorders” (AtheroGenics, Inc., priority 2001, dated 2007) one finds IC50 and melting point data, which are given here for 4 molecules.

For series [1], the system named is VCAM-1. In words: In vitro VCAM-1 assay: TNF-α stimulated endothelial cells, cell-surface ELISA. The series is classed as cell-based. The following applies: primary human aortic (HAEC) or pulmonary (HPAEC) endothelial cells, TNF-α 1 ng/ml, approximately 16 hours exposure. The method, then: Cell Culture and compound dosing: Cultured primary human aortic (HAEC) or pulmonary (HPAEC) endothelial cells were obtained from Clonetics, Inc., and were used below passage 9. Cells were seeded in 96 well plates such that they would reach 90–95% confluency by the following day. On the following day the cells were stimulated with TNF-α (1 ng/ml) in the presence or absence of compounds dissolved in DMSO such that the final concentration of DMSO is 0.25% or less. To establish a dose curve for each compound, four concentrations in 2- to 5-fold increments were used. Cells were exposed to TNF-α and compounds for approximately 16 hours. The next day the cells were examined under microscope to score for visual signs of toxicity or cell stress.
Following 16 hr exposure to TNF-α and compound the media was discarded and the cells were washed once with Hanks Balanced Salt Solution (HBSS)/Phosphate buffered saline (PBS) (1:1). Primary antibodies against VCAM-1 (0.25 μg/ml in HBSS/PBS+5% FBS) were added and incubated for 30–60 minutes at 37° C. Cells were washed with HBSS/PBS three times, and secondary antibody Horse Radish Peroxidase (HRP)-conjugated goat anti-mouse IgG (1:500 in HBSS/PBS+5% FBS) were added and incubated for 30 minutes at 37° C. Cells were washed with HBSS/PBS four time and TMB substrate were added and incubated at room temperature in the dark until there was adequate development of blue color. The length of time of incubation was typically 5–15 minutes. 2N sulfuric acid was added to stop the color development and the data was collected by reading the absorbance on a BioRad ELISA plate reader at OD 450 nm. The results are expressed as IC50 values (the concentration (micromolar) of compound required to inhibit 50% of the maximal response of the control sample stimulated by TNF-α only).

On to `COc1cc(OC)c(-c2cccs2)cc1C#CC(=O)c1cc(OC)c(OCC(=O)O)c(OC)c1` [Example 4, {4-[3-(2,4-Dimethoxy-5-thiophen-2-yl-phenyl)-propynoyl]-2,6-dimethoxy-phenoxy}-acetic acid], for which the IC50 in series [1] was < 5 µM.

For the molecule `COC(=O)COc1c(OC)cc(C(=O)C#Cc2cc(-c3cccs3)c(OC)cc2OC)cc1OC` [Example 3, {4-[3-(2,4-Dimethoxy-5-thiophen-2-yl-phenyl)-propynoyl]-2,6-dimethoxy-phenoxy}-acetic acid methyl ester], the IC50 in series [1] was < 5 µM. With `COc1cc(OC)c(-c2cccs2)cc1C#CC(=O)c1ccc(C(=O)O)cc1` [Example 2, 4-[3-{2,4-Dimethoxy-5-(thiophen-2-yl)-phenyl}propynoyl]-benzoic Acid], the melting point is 220 °C (dec.). For the same molecule, the IC50 in series [1] was < 5 µM.

Regarding `COC(=O)c1ccc(C(=O)C#Cc2cc(-c3cccs3)c(OC)cc2OC)cc1` [Example 1, 4-[3-(2,4-dimethoxy-5-thiophen-2-yl-phenyl)-propynoyl]-benzoic acid methyl ester], the melting point was 198 to 200 °C.
